One may read the Km as the substrate concentration at which the rate is half of its maximum.

Molecules are shown by their SMILES. Where only a bound is given, the exact number is not on record here.

For one compound, Km results are on record in patent US20220348970A1, “METHODS AND COMPOSITIONS FOR 3-HYDROXYPROPIONATE PRODUCTION” (The Regents of the University of California, priority 2017, published 2022).

For experiment [1], the target named is T1, OAADC A0A0D6NFJ6_9PROT, SEQ ID NO: 166 (Acetobacter indonesiensis, UniProt A0A6N3T5V0).
T1 sequence (A0A6N3T5V0 with tags, fused parts or gaps): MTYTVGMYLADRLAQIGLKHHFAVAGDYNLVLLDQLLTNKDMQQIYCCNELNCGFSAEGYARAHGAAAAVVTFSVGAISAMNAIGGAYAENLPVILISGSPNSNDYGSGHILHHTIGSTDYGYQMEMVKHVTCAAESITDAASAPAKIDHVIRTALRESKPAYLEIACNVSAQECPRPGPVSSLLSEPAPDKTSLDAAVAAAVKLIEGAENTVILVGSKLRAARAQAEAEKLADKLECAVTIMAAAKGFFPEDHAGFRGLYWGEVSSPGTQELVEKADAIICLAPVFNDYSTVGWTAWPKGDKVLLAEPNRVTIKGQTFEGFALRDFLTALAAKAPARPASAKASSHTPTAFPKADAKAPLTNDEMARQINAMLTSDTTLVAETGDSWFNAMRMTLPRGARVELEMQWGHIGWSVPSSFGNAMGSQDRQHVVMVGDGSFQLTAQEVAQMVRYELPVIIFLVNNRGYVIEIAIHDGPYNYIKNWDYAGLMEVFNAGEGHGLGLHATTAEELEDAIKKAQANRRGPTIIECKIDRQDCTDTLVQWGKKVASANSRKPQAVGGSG
The experiment is described as follows: OAADC kinetics of A0A0D6NFJ6_9PROT on oxaloacetate. Conditions: pH 7.2, 21° C. It is filed as biochemical. The method, then: All substrates were dissolved in MilliQ H2O and the pH was adjusted to 7.2 as necessary. Activity for oxaloacetate, pyruvate, and 2-ketoisovalerate was measured at a 1 mM substrate concentration. The assay was performed in a 96-well half-area plate. Each reaction contained reaction buffer (100 mM HEPES, 100 mM NaCl, 10% glycerol, pH 7.2), ADH (Sigma-Aldrich, A7011, 100 U/mL for pyruvate, 600 U/mL for oxaloacetate, and 600 U/mL for 2-ketoisovalerate), and a final concentration of 0.5 mM NADPH, 0.1 mM TPP, and 1 mM MgSO4. A range of substrate concentrations (0.1 mM-5 mM) were uSEQ to perform steady-state kinetics measurement over a period of one hour. Absorbance readings were taken at one minute intervals at 340 nm at 21° C. for 60 minutes using the Synergy H1 spectrophotometer (Biotek). Kinetic parameters (ka and Ks1) were determined by fitting initial velocity versus substrate concentration data to the Michaelis-Menten equation.
A second round of genome mining was conducted as described in Example 1, except using the 4COK sequence as the input. Genes encoding candidate OAADCs were synthesized and expressed in E. coli for further characterization. OAADC activity was assayed as described in Example 1.

Experiment [2] has as its target T2, pyruvate decarboxylase from Gluconacetobacter diazotrophicus (4COK), SEQ ID NO: 1 (Gluconacetobacter diazotrophicus, UniProt A9H275).
T2 construct: likely strain PAl 5 (ATCC 49037 / DSM 5601)
T2 sequence (A9H275 1-558): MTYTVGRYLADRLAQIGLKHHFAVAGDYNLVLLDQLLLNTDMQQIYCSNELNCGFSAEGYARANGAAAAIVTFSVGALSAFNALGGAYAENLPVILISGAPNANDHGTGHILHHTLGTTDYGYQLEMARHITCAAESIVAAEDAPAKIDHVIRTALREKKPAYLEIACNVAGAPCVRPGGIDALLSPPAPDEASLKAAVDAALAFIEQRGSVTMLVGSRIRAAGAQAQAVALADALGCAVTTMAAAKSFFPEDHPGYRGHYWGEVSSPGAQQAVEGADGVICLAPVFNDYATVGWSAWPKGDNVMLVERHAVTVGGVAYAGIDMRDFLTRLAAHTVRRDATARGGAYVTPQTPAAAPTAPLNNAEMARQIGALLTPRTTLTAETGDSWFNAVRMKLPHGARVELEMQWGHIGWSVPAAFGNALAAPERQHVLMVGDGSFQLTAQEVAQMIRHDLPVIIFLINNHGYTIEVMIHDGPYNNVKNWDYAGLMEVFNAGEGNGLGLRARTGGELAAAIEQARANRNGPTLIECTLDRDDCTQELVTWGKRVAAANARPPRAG
The experiment is described as follows: Steady-state kinetics of 4COK decarboxylase on pyruvate and oxaloacetate (ADH/NADPH coupled, 340 nm). It is filed as biochemical. Conditions: pH 7.2, 21° C., 0.1 mM-5 mM substrate. How it is done:
Overnight cultures of BLR cells suspended in a 2 mL volume were transformed with a pet29b+ plasmid (encoding polypeptides of interest with a C-terminal His-tag) and grown in Terrific Broth with 50 μg/ml kanamycin. Cultures were diluted 1:1.000 in 500 ml of Terrific Broth with 1 mM MgSO4, 1% glucose and 50 μg/ml antibiotic and then grown at 37° C. for 24 hours. Cultures were pelleted down at 4,700 RPM for 10 minutes and resuspended in auto-induction media (LB broth, 1 mM MgSO4, 0.1 mM TPP, 1×NPS and 1×5052) for induction at 18° C. for 20 hours. […] Protein concentrations were determined using a Synergy H1 spectrophotometer (Biotek) by measuring absorbance at 280 nm using calculated extinction coefficients.
All substrates were dissolved in MilliQ H2O and the pH was adjusted to 7.2 as necessary. Activity for oxaloacetate, pyruvate, and 2-ketoisovalerate was measured at a 1 mM substrate concentration. […] Absorbance readings were taken at one minute intervals at 340 nm at 21° C. for 60 minutes using the Synergy H1 spectrophotometer (Biotek). Kinetic parameters (ka and Ks1) were determined by fitting initial velocity versus substrate concentration data to the Michaelis-Menten equation. […]

As for `O=C(O)CC(=O)C(=O)O` [Oxaloacetate], the Km in experiment [1] and in experiment [2] was > 20 mM throughout.
